In ChEMBL document CHEMBL3272160, “Synthesis and some pharmacological properties of [1-(L-2-hydroxy-3-mercaptopropanoic acid), 4-threonine]oxytocin (hydroxy [4-thr]oxytocin), a peptide with strikingly high oxytocic potency and of [1-(L-2-hydroxy-3-mercaptopropanoic acid)]oxytocin (hydroxy-oxytocin)” (J Med Chem, 1976):
*1 amine or outer side, *2 acyl side, *3 side chain or, on linkers, in order; H or OH if unused. Where a SMILES comes first, the peptide text is derived from it. Bridges are numbered along the chain shown (N, C = ends). [ ]: non-standard residue; d: D form. Abu(4-yl) = O=C([C@H](CC[*:3])N[*:1])[*:2]; X1 = O=C([C@@H](O)CS[*:2])[*:1]; X2 = O=C(CCC[*:2])[*:1]; Mpa = O=C(O)CCS

What was measured:
[1] = molecular target: T1, Oxytocin receptor (Rattus norvegicus) (UniProt P70536); test: Activity at oxytocin receptor in rat uterus in presence of 0.5 mM Mg2+; format: tissue-based
T1 sequence (whole entry): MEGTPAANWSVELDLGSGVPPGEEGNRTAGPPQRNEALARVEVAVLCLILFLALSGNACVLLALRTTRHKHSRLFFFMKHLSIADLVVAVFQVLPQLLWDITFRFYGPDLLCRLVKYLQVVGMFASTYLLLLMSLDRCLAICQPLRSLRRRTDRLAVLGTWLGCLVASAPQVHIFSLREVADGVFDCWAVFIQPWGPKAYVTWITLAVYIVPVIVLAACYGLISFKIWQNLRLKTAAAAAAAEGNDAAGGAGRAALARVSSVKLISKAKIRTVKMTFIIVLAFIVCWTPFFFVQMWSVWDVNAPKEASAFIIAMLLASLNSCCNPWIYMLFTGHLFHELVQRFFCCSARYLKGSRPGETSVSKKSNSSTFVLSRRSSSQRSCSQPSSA

[2] = molecular target: T1, Oxytocin receptor (Rattus norvegicus); test: Activity at oxytocin receptor in rat uterus; format: tissue-based
[3] = organism: Oryctolagus cuniculus; test: Oxytocic activity in rabbit assessed as milk ejection; format: functional
[4] = organism: Rattus norvegicus; test: Vasopressor activity in rat; format: ADME, organism-based; details: in vivo
[5] = organism: Rattus norvegicus; test: Antidiuretic activity in rat; format: ADME, organism-based, Urine; details: in vivo
[6] = Ratio of activity at oxytocin receptor in rat uterus to vasopressor activity in rat
[7] = Ratio of activity at oxytocin receptor in rat uterus to antidiuretic activity in rat; parameters: species or system Urine
[8] = molecular target: T1, Oxytocin receptor (Rattus norvegicus); test: Activity at oxytocin receptor in rat uterus relative to oxytocin; format: tissue-based
[9] = molecular target: T1, Oxytocin receptor (Rattus norvegicus); test: Activity at oxytocin receptor in rat mammary strip
[10] = organism: Rattus norvegicus; test: Oxytocic activity in rat assessed as milk ejection; format: functional

| SMILES | Activity [1] [U/mg] | Activity [2] [U/mg] | Activity [4] [U/mg] | Activity [5] [U/mg] | Ratio [8] | Activity [9] [U/mg] | Activity [3] [U/mg] | Ratio [6] | Ratio [7] | Activity [10] [U/mg] |
| --- | --- | --- | --- | --- | --- | --- | --- | --- | --- | --- |
| CC[C@H](C)[C@@H]1NC(=O)[C@H](Cc2ccc(O)cc2)NC(=O)CCSSC[C@H](C(=O)N2CCC[C@H]2C(=O)N[C@@H](CC(C)C)C(=O)NCC(N)=O)NC(=O)[C@H](CC(N)=O)NC(=O)[C@H](CCC(N)=O)NC1=O | 760 | – | – | – | – | – | – | – | – | – |
| CC[C@H](C)[C@@H]1NC(=O)[C@H](Cc2ccc(O)cc2)NC(=O)[C@@H](N)CSSC[C@@H](C(=O)N2CCC[C@H]2C(=O)N[C@@H](CC(C)C)C(=O)NCC(N)=O)NC(=O)[C@H](CC(N)=O)NC(=O)[C@H]([C@@H](C)O)NC1=O (H-CYITNCPLG-NH2; disulfide 1-6) | 719 | 923 | 0.43 | 1.8 | > 4 | – | 543 | 2146 | 513 | – |
| CC[C@H](C)[C@@H]1NC(=O)[C@H](Cc2ccc(O)cc2)NC(=O)[C@@H](O)CSSC[C@@H](C(=O)N2CCC[C@H]2C(=O)N[C@@H](CC(C)C)C(=O)NCC(N)=O)NC(=O)[C@H](CC(N)=O)NC(=O)[C@H](CCC(N)=O)NC1=O (YIQNCPLG-NH2; linker N-5 via X1) | 868 | 1280 | 14.7 | 16.6 | 2.45 | 363 | – | 50 | 77 | 694 |
| CC[C@H](C)[C@@H]1NC(=O)[C@H](Cc2ccc(O)cc2)NC(=O)CCCSC[C@@H](C(=O)N2CCC[C@H]2C(=O)N[C@@H](CC(C)C)C(=O)NCC(N)=O)NC(=O)[C@H](CC(N)=O)NC(=O)[C@H](CCC(N)=O)NC1=O (YIQNCPLG-NH2; linker N-5 via X2) | 921 | 1900 | 17.5 | 24.1 | 4 | 581 | – | 108 | 79 | – |
| CC[C@H](C)[C@@H]1NC(=O)[C@H](Cc2ccc(O)cc2)NC(=O)[C@@H](O)CSSC[C@@H](C(=O)N2CCC[C@H]2C(=O)N[C@@H](CC(C)C)C(=O)NCC(N)=O)NC(=O)[C@H](CC(N)=O)NC(=O)[C@H]([C@@H](C)O)NC1=O (YITNCPLG-NH2; linker N-5 via X1) | 937 | 4180 | 4.92 | 5.3 | 8 | 378 | – | 849 | 788 | 808 |
| CC[C@H](C)[C@@H]1NC(=O)[C@H](Cc2ccc(O)cc2)NC(=O)[C@@H](N)CSSC[C@@H](C(=O)N2CCC[C@H]2C(=O)N[C@@H](CC(C)C)C(=O)NCC(N)=O)NC(=O)[C@H](CC(N)=O)NC(=O)[C@H](CCC(N)=O)NC1=O [OXYTOCIN] | 486 | 520 | – | 4 | > 7 | – | 474 | – | – | – |

More lines, main results first:

| Activity [1] [U/mg] | Activity [2] [U/mg] | Activity [4] [U/mg] | Activity [5] [U/mg] | Ratio [8] | Activity [9] [U/mg] | SMILES | Activity [3] [U/mg] | Ratio [6] | Ratio [7] | Activity [10] [U/mg] |
| --- | --- | --- | --- | --- | --- | --- | --- | --- | --- | --- |
| – | 734 | 2.95 | 9.3 | – | 177 | CC[C@H](C)[C@@H]1NC(=O)[C@H](Cc2ccc(O)cc2)NC(=O)[C@@H](N)CCSC[C@@H](C(=O)N2CCC[C@H]2C(=O)N[C@@H](CC(C)C)C(=O)NCC(N)=O)NC(=O)[C@H](CC(N)=O)NC(=O)[C@H](CCC(N)=O)NC1=O (H-[Abu(4-yl)]YIQNCPLG-NH2; thioether 1-6) | – | 249 | 79 | – |
| 242 | 149 | < 0.1 | 0.9 | – | – | CC[C@H](C)[C@@H]1NC(=O)[C@H](Cc2ccc(O)cc2)NC(=O)CCSSC[C@@H](C(=O)N2CCC[C@H]2C(=O)N[C@@H](CC(C)C)C(=O)NCC(N)=O)NC(=O)[C@H](CC(N)=O)NC(=O)[C@H]([C@@H](C)O)NC1=O ([Mpa]YITNCPLG-NH2; disulfide 1-6) | 385 | – | 165 | – |
| – | – | 1.44 | 19 | – | – | CC[C@H](C)[C@@H]1NC(=O)[C@H](Cc2ccc(O)cc2)NC(=O)CCSSC[C@@H](C(=O)N2CCC[C@H]2C(=O)N[C@@H](CC(C)C)C(=O)NCC(N)=O)NC(=O)[C@H](CC(N)=O)NC(=O)[C@H](CCC(N)=O)NC1=O [DEMOXYTOCIN] | 541 | 558 | 42 | – |
